Source: patent publication US11325937B2, “Glycoside compound and preparation method therefor, composition, application, and intermediate” (SHANGHAI HUTCHISON PHARMACEUTICALS LIMITED, priority 2018, dated 2022)
Where two headings read alike, the source gives them in different places.

Tested on: VEGF-A mRNA expression in macrophages (RAW264.7)
Assay: In vitro macrophage experiment: activity of compounds to promote VEGF-A mRNA expression (RT-qPCR)
Format: cell-based
Set-up: Expression level of VEGF-A mRNA: unit of the concentration uncertain
Details: for fold induction at 1 µM / fold induction at 100 µM / fold induction at 500 µM / fold induction at 1000 µM / fold induction at 2000 µM / fold induction at 3000 µM: Mus musculus, read-out: Expression level of VEGF-A mRNA
Text: 1.1. Specific steps for activity screening: 1-10×10^6 macrophages (RAW264.7) in logarithmic growth phase were transferred to a cell culture plate. The test compounds (Compounds TG-001, TG-002, TG-003, TG-004, TG-005, TG-006, TG-007, TG-008, TG-009, TG-010, TG-011, TG-012, TG-013, TG-014, TG-015, TG-016, TG-017, TG-018, TG-019, TG-020, TG-021, TG-022, TG-023, TG-024, TG-025, TG-026, TG-027, TG-028, TG-029, TG-030, TG-031, TG-032, TG-033, TG-034, TG-035, TG-036, TG-037, TG-045, TG-039, TG-040 TG-041, TG-042, TG-043, TG-044, TG-045, TG-052, TG-053, TG-054, TG-047, TG-048, TG-046, TG-049, TG-050, TG-051, TG-055 and TG-056) were respectively diluted into various concentrations, and separately added to the cell culture plate containing macrophage. The cells were cultured for 3 h in a complete medium (RPMI 1640 medium:fetal bovine serum:tri-resistance screening agent (i.e. penicillin-streptomycin-gentamicin, Beijing Leagene Biotechnology Co., Ltd.)=89:10:1 based on volume) in a cell incubator at 37° C. and 5% CO2. The cells were lyzed by Trizol (Beijing ComWin Biotech Co., Ltd) to extract RNA, and the RNA concentration was measured using a microvolume nucleic acid and protein analyzer (Nanodrop2000c). The required volume V of RNA was calculated according to the RNA concentration, and the RNA reverse transcription reaction system was prepared according to Table 1. Then RNA reverse transcription (cDNA synthesis) (RT Easy™ I (For first-strand cDNA synthesis) Reverse Transcription Kit, Chengdu ForeGene Biotechnology Co., Ltd.) was carried out according to the conditions described in Table 2. The resulting cDNA was used to prepare a fluorescence quantitative PCR reaction solution according to Table 3. The fluorescence quantitative PCR reaction conditions were set according to Table 4, and the fluorescence quantitative PCR reaction (Real time PCR Easy™-SYBR Green Fluorescence Quantification Kit, Chengdu ForeGene Biotechnology Co., Ltd.) was performed using cDNA from the reverse transcription reaction as a template. The relative expression level 2^−ΔΔCt of the target gene was calculated from the Ct value of each sample with the blank control group as a control and β-Actin as an internal reference.
Based on the maximum level of VEGF-A mRNA expression promoted by a drug at a certain concentration, the activity of the drug was determined. The expression level of VEGF-A mRNA in macrophages was defined as 1 when no drug was added. Using a traditional Chinese medicine injection Salvianolate that is used in the treatment of Cardio-cerebrovascular disease and promotes a maximum level of VEGF-A mRNA expression of 6 in macrophages (the results are shown in Table 5) as a judgment standard, the compound promoting a maximum level of VEGF-A mRNA expression of 4 or more in macrophage was a target compound. That is, when the maximum level of VEGF-A mRNA expression in macrophages promoted by the test compound is over 4-fold higher than the expression level of VEGF-A mRNA in macrophages without the addition of the test compound, the test compound was a preliminary target compound promoting angiogenesis.

[1] = 1 μM, RAW264.7 macrophages, 3 h, relative expression 2^-ΔΔCt, no drug = 1
[2] = 0.1 mM, RAW264.7 macrophages, 3 h, relative expression, no drug = 1
[3] = 0.5 mM, RAW264.7 macrophages, 3 h, relative expression, no drug = 1
[4] = 1 mM, RAW264.7 macrophages, 3 h, relative expression, no drug = 1
[5] = 2 mM, RAW264.7 macrophages, 3 h, relative expression, no drug = 1
[6] = 3 mM, RAW264.7 macrophages, 3 h, relative expression, no drug = 1

Molecule	fold induction at 1 µM [1]	fold induction at 100 µM [2]	fold induction at 500 µM [3]	fold induction at 1000 µM [4]	fold induction at 2000 µM [5]	fold induction at 3000 µM [6]	further results
COc1ccc(CN(CCO[C@@H]2O[C@H](CO)[C@@H](O)[C@H](O)[C@H]2O)C(=O)OCc2ccccc2)cc1 [TG-034]							fold induction at 1 µM (RAW264.7, 3 h): 1.36; fold induction at 100 µM (RAW264.7, 3 h): 1.32; fold induction at 500 µM (RAW264.7, 3 h): 4.44; fold induction at 1000 µM (RAW264.7, 3 h): 2.93; fold induction at 2000 µM (RAW264.7, 3 h): 7.16; fold induction at 3000 µM (RAW264.7, 3 h): 5.43
COc1ccc(CCCCCCO[C@@H]2O[C@H](CO)[C@@H](O)[C@H](O)[C@H]2O)cc1 [TG-006]	3.86	1.92	2.48	0.7	0.48	0.44	
C=CCOc1ccc(CCCCO[C@@H]2O[C@H](CO)[C@@H](O)[C@H](O)[C@H]2O)cc1 [TG-015]	1.58	1.26	2.18	4.3	1.65	1.53	
CC(C)(C)CCOc1ccc(CCCCO[C@@H]2O[C@H](CO)[C@@H](O)[C@H](O)[C@H]2O)cc1 [TG-040]	2.09	3.97	1.46	0.81	0.22	0.28	
CCOc1ccc(CCCCO[C@@H]2O[C@H](CO)[C@@H](O)[C@H](O)[C@H]2O)cc1 [TG-024]	1.82	1.14	1.64	4.86	8.38	4.32	
COc1ccc(COCCO[C@@H]2O[C@H](CO)[C@@H](O)[C@H](O)[C@H]2O)cc1 [TG-032]							fold induction at 1 µM (RAW264.7, 3 h): 2.79; fold induction at 100 µM (RAW264.7, 3 h): 4.89; fold induction at 500 µM (RAW264.7, 3 h): 0.92; fold induction at 1000 µM (RAW264.7, 3 h): 3.68; fold induction at 2000 µM (RAW264.7, 3 h): 1.83; fold induction at 3000 µM (RAW264.7, 3 h): 0.96
CC(C)Oc1ccc(CCCCO[C@@H]2O[C@H](CO)[C@@H](O)[C@H](O)[C@H]2O)cc1 [TG-038]	0.79	1.06	0.96	1.71	1.32	1.29	
O=[N+]([O-])c1ccc(CCCCO[C@@H]2O[C@H](CO)[C@@H](O)[C@H](O)[C@H]2O)cc1 [TG-011]	1.75	1.18	1.3	0.46	1.24	0.55	
TG-003							Expression level of VEGF-A mRNA [1]: 0.96; Expression level of VEGF-A mRNA (0.1 (unit uncertain), RAW264.7 macrophages, 3 h, relative expression, no drug = 1): 3.56; Expression level of VEGF-A mRNA (0.5 (unit uncertain), RAW264.7 macrophages, 3 h, relative expression, no drug = 1): 4.69; Expression level of VEGF-A mRNA (1 (unit uncertain), RAW264.7 macrophages, 3 h, relative expression, no drug = 1): 3.12; Expression level of VEGF-A mRNA (2 (unit uncertain), RAW264.7 macrophages, 3 h, relative expression, no drug = 1): 1.39; Expression level of VEGF-A mRNA (3 (unit uncertain), RAW264.7 macrophages, 3 h, relative expression, no drug = 1): 0.56
COc1cccc(CCCCO[C@@H]2O[C@H](CO)[C@@H](O)[C@H](O)[C@H]2O)c1 [TG-004]	0.9	0.4	0.73	1.11	4.29	2.66	
COc1ccc(NCCCO[C@@H]2O[C@H](CO)[C@@H](O)[C@H](O)[C@H]2O)cc1 [TG-037]							fold induction at 1 µM (RAW264.7, 3 h): 1.3; fold induction at 100 µM (RAW264.7, 3 h): 0.62; fold induction at 500 µM (RAW264.7, 3 h): 1.77; fold induction at 1000 µM (RAW264.7, 3 h): 1.69; fold induction at 2000 µM (RAW264.7, 3 h): 1.8; fold induction at 3000 µM (RAW264.7, 3 h): 3.23
